Measurements as given in PMC3926802 (Molecular pharmaceutics, 2012).
Where “and” joins values, the source holds several entries; their conditions need not be identical. Identical values can stand only once. Like-named read-outs stand apart in the source and are kept apart here.

Columns and labels:
[1] = In vitro transport across SCRPE; conditions: for Cumulative % transport compared with GFX, SCRPE / Fold improvement in permeability compared to GFX, SCRPE: 200 μM donor; for Cumulative % transport compared with GFX, SCRPE: no inhibitor; for Fold improvement in permeability compared to GFX, SCRPE: pH 7.4, 37 °C; for GFX levels formed in the prodrug group, SCRPE: during in vitro transport study
[2] = Thermodynamic solubility in water for injection; assay type: physicochemical; conditions: for Solubility: water for injection (pH 6.4), 37 °C, 6 hours
Buffer = assay type: physicochemical; conditions: buffer (pH 7.4), 37°C, 24 hours
[3] = In vitro transport across cornea; conditions: for Cumulative % transport compared with GFX, cornea / Fold improvement in permeability compared to GFX, cornea: 200 μM donor; for Cumulative % transport compared with GFX, cornea: no inhibitor; for Fold improvement in permeability compared to GFX, cornea: pH 7.4, 37 °C; for GFX levels formed in the prodrug group, cornea: during in vitro transport study
Log D = conditions: n-octanol and PBS buffer (pH 7.4), 37 °C; mean ± SD, n = 3
[4] = In vitro transport across conjunctiva; conditions: for Cumulative % transport compared with GFX, conjunctiva / Fold improvement in permeability compared to GFX, conjunctiva: 200 μM donor; for Cumulative % transport compared with GFX, conjunctiva: no inhibitor; for Fold improvement in permeability compared to GFX, conjunctiva: pH 7.4, 37 °C; for GFX levels formed in the prodrug group, conjunctiva: during in vitro transport study
[5] = In vivo tissue distribution and bioconversion after topical eye drop; parameters: species or system pigmented rabbits
[6] = cited from earlier work
[7] = cited from earlier work; remark: listed apart in the source
[8] = α-methyl-DL-tryptophan, ATB (0, +) inhibitor, versus no inhibitor
[9] = MPP+ (500 μM), OCT inhibitor, versus no inhibitor
[10] = absence of OCT inhibitor MPP+, printed as compared to GFX
[11] = 1 hour after topical dose of DMAP-GFX
[12] = topical eye drop dosing in rabbits

SMILES	Cumulative % transport compared with GFX, SCRPE [1]	Fold improvement in permeability compared to GFX, SCRPE [1]	GFX levels formed in the prodrug group, SCRPE [1]	Solubility [2]	Solubility ([2]; mean ± SD, n = 3)	GFX formed from prodrug (Buffer)	Cumulative % transport compared with GFX, cornea [3]	Fold improvement in permeability compared to GFX, cornea [3]	GFX levels formed in the prodrug group, cornea [3]	Log D (pH 7.4) (Log D)	Cumulative % transport compared with GFX, conjunctiva [4]	Fold improvement in permeability compared to GFX, conjunctiva [4]	GFX levels formed in the prodrug group, conjunctiva [4]	also measured
COc1c(N2CCN(C(=O)[C@@H](N)CC(C)C)C(C)C2)c(F)cc2c(=O)c(C(=O)O)cn(C3CC3)c12 (some centres unmarked) [APM-GFX]	did not show any improvement	did not show any improvement	below the detection limits	4 mM	2160 ± 300 µg/mL	8.97%	did not show any improvement	did not show any improvement	below the detection limits	1.04 ± 0.02	did not show any improvement	did not show any improvement	below the detection limits	Transport in the presence of α-methyl-DL-tryptophan, SCRPE [1, 8]: did not show any change; Transport in the presence of α-methyl-DL-tryptophan, cornea [3, 8]: did not show any change; Transport in the presence of α-methyl-DL-tryptophan, conjunctiva [4, 8]: did not show any change
COc1c(N2CCNC(C)C2)c(F)cc2c(=O)c(C(=O)NCCCC(=O)O)cn(C3CC3)c12 (racemic) [CP-GFX, (±)-4-(1-cyclopropyl-6-fluoro-8-methoxy-7-(3-methylpiperazin-1-yl)-4-oxo-1,4-dihydroquinoline-3-carboxamido)butanoic acid]					3010 ± 200 µg/mL	8.63%								Log D (pH 7.4): 0.11 ± 0.01
COc1c(N2CCNC(C)C2)c(F)cc2c(=O)c(C(=O)NCCCN(C)C)cn(C3CC3)c12 (racemic) [DMAP-GFX, (±)-1-cyclopropyl-N-(3-(dimethylamino)propyl)-6-fluoro-8-methoxy-7-(3-methylpiperazin-1-yl)-4-oxo-1,4-dihydroquinoline-3-carboxamide]	significantly higher than GFX	1.9 fold and 1.95 fold	below the detection limits	72 mM	33260 ± 3000 µg/mL	9.51%	significantly higher than GFX	1.4 fold and 1.42 fold	below the detection limits	0.05 ± 0.01	significantly higher than GFX	1.8 fold and 1.85 fold	below the detection limits	Cumulative % transport in the presence of MPP+, SCRPE [1, 9]: significantly lower; Permeability in the absence of inhibitor, fold higher, SCRPE [1, 10]: 2.06 fold; Fold higher solubility than CP-GFX ([2]; compared to CP-GFX (6.0 mM)): 12 fold; Fold greater solubility than GFX ([2]; compared to GFX): 12.8 fold; Cumulative % transport in the presence of MPP+, cornea [3, 9]: significantly lower; Permeability in the absence of inhibitor, fold higher, cornea [3, 10]: 1.42 fold; Formed drug (GFX) levels as % of the total drug, CRPE [5, 11]: 13%; Formed drug (GFX) levels as % of the total drug, conjunctiva [5, 11]: 70%; Formed drug (GFX) levels as % of the total drug, cornea [5, 11]: 8%; Formed drug (GFX) levels as % of the total drug, iris-ciliary body [5, 11]: 24%; Formed drug (GFX) levels as % of the total drug, retina [5, 11]: 55%; Formed drug (GFX) levels as % of the total drug, sclera [5, 11]: 29%; Formed drug (GFX) levels as % of the total drug, vitreous humor [5, 11]: 60%; Drug levels in the remaining tissues, prodrug versus drug group ([5]; 1 hour after topical eye drop, tissues other than vitreous humor and CRPE): not significantly different; Cumulative % transport in the presence of MPP+, conjunctiva [4, 9]: significantly lower
COc1c(N2CCNC(C)C2)c(F)cc2c(=O)c(C(=O)O)cn(C3CC3)c12 (centres unmarked) [GFX, Gatifloxacin sesquihydrate]														pKa, carboxylic acid (reported) [6]: 5.94; solubility at 6 h ([2]; water for injection, pH 6.4): 2600 µg/mL and 7000 µM; Tmax in vitreous humor ([7]; single eye drop, pigmented rabbits): 60 min; Tmax, conjunctiva [7, 12]: 4.98 min; Tmax, plasma [7, 12]: 4.98 min; Tmax, tear fluid [7, 12]: 4.98 min
